Experimental data taken from patent US6881741B2 (ViroChem Pharma Inc., priority 2001, dated 2005).

These compounds were tested against recombinant HCV NS5B (HCV RNA-dependent RNA polymerase) (Hepatitis C virus genotype 1b, UniProt P26663) (assay: biochemical). Conditions: HCV polymerase activity, list of compounds of Example 27; read-out: IC50 (polymerase activity).
Chain of recombinant HCV NS5B (HCV RNA-dependent RNA polymerase) (P26663 2420-3010 limits assumed): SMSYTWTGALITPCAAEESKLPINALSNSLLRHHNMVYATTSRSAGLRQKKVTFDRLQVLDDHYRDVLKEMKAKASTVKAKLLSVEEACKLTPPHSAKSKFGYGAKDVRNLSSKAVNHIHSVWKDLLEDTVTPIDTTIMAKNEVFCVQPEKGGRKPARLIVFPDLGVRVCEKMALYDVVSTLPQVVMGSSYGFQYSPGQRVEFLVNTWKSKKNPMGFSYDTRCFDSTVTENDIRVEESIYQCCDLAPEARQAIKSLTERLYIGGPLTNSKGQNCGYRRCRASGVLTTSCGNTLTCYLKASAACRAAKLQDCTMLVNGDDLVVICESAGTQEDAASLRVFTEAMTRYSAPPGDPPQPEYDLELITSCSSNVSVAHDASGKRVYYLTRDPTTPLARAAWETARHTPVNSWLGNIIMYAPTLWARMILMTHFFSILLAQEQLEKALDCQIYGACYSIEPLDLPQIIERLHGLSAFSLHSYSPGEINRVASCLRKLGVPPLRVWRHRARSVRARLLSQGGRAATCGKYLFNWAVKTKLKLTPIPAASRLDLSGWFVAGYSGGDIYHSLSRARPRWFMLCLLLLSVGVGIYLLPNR

| SMILES | IC50 |
| --- | --- |
| CC(C)(C)c1ccc(CN(C(=O)CC2CCCC2)c2cc(-c3ccccc3)sc2C(=O)O)cc1 [Compound 442, 3-[(4-TERT-BUTYL-BENZYL)-(2- CYCLOPENTYL-ACETYL)-AMINO]-5- PHENYL-THIOPHENE-2-CARBOXYLIC ACID] | < 5 µM |
| CCC(=O)N(Cc1ccc(C(C)(C)C)cc1)c1cc(-c2ccccc2)sc1C(=O)O [Compound 417, 3-[(4-TERT-BUTYL-BENZYL)-PROPIONYL- AMINO]-5-PHENYL-THIOPHENE-2- CARBOXYLIC ACID] | 5 to 20 µM |
| O=C(O)c1sc(-c2ccccc2)cc1N(Cc1ccccc1)C(=O)C1CC1 [Compound 454, 3-(BENZYL-CYCLOPROPANECARBONYL- AMINO)-5-PHENYL-THIOPHENE-2- CARBOXYLIC ACID] | < 5 µM |
| CCCC(=O)N(Cc1cccc(Cl)c1)c1cc(-c2ccccc2)sc1C(=O)O [Compound 482, 3-[BUTYRYL-(3-CHLORO-BENZYL)- AMINO]-5-PHENYL-THIOPHENE-2- CARBOXYLIC ACID] | < 5 µM |
| Cc1ccc(CN(C(=O)C(C)C)c2cc(-c3ccccc3)sc2C(=O)O)cc1 [Compound 468, 3-[ISOBUTYRYL-(4-METHYL-BENZYL)- AMINO]-5-PHENYL-THIOPHENE-2- CARBOXYLIC ACID] | 5 to 20 µM |
| CC(C)N(C(=O)c1cc(-c2ccccc2)sc1C(=O)O)c1ccc(Cl)cc1Cl [Compound 583, 3-[(2,4-DICHLORO-PHENYL)-ISOPROPYL- CARBAMOYL]-5-PHENYL-THIOPHENE-2- CARBOXYLIC ACID] | < 5 µM |
| CCCC(=O)N(Cc1ccc(C(F)(F)F)cc1)c1cc(-c2ccccc2)sc1C(=O)O [Compound 415, 3-[BUTYRYL-(4-TRIFLUOROMETHYL- BENZYL)-AMINO]-5-PHENYL-THIOPHENE- 2-CARBOXYLIC ACID] | 5 to 20 µM |
| Cc1cc(S(=O)(=O)Nc2cc(-c3ccccc3)sc2C(N)=O)c(C)cc1Cl [Compound 580, 3-(4-CHLORO-2,5 DIMETHYL- BENZENESULFONYLAMINO)-5-PHENYL- THIOPHENE-2-CARBOXYLIC ACID AMIDE] | < 5 µM |
| CN(C(=O)C1CCCCC1)c1cc(-c2ccccc2)sc1C(=O)O [Compound 498, 3-(CYCLOHEXANECARBONYL-METHYL- AMINO)-5-PHENYL-THIOPHENE-2- CARBOXYLIC ACID] | < 5 µM |

Same assay, conditions: related polymerase activity (Example 27 list); read-out: IC50

| SMILES | IC50 |
| --- | --- |
| Cc1ccc(C(=O)N(Cc2cccc(C(F)(F)F)c2)c2cc(-c3ccccc3)sc2C(=O)O)cc1 [Compound 330, 3-[(4-METHYL-BENZOYL)-(3- TRIFLUOROMETHYL-BENZYL)-AMINO]-5- PHENYL-THIOPHENE-2-CARBOXYLIC ACID] | < 5 µM |
| O=C(O)c1sc(-c2ccccc2)cc1NC(=O)N1CCC(n2c(=O)[nH]c3ccccc32)CC1 [Compound 113, 3-{[4-(2-OXO-2,3-DIHYDRO-BENZOIMIDAZOL-1-YL)-PIPERIDINE-1-CARBONYL]-AMINO]-5-PHENYL-THIOPHENE-2-CARBOXYLIC ACID] | > 20 µM |
| O=C(O)c1sc(-c2ccccc2)cc1NS(=O)(=O)c1cccc(Cl)c1 [Compound 40, 3-(3-CHLORO-BENZENESULFONYLAMINO)-5-PHENYL-THIOPHENE-2-CARBOXYLIC ACID] | < 5 µM |
| CCCCc1ccc(-c2cc(NS(=O)(=O)c3ccccc3C)c(C(=O)O)s2)cc1 [Compound 231, 5-(4-BUTYL-PHENYL)-3-(TOLUENE-2-SULFONYLAMINO)-THIOPHENE-2-CARBOXYLIC ACID] | < 5 µM |
| CCN(C(=O)c1ccc(C)cc1)c1cc(-c2ccccc2)sc1C(=O)O [Compound 185, 3-[ETHYL-(4-METHYL-BENZOYL)-AMINO]-5-PHENYL-THIOPHENE-2-CARBOXYLIC ACID] | < 5 µM |
| O=C(O)c1sc(-c2ccccc2)cc1N(C(=O)c1ccc(Cl)cc1Cl)C1CCCC1 [Compound 201, 3-[CYCLOPENTYL-(2,4-DICHLORO-BENZOYL)-AMINO]-5-PHENYL-THIOPHENE-2-CARBOXYLIC ACID] | < 5 µM |
| Cc1ccccc1S(=O)(=O)Nc1cc(-c2cc3ccccc3s2)sc1C(=O)O [Compound 230, 5-BENZO[B]THIOPHEN-2-YL-3-(TOLUENE-2-SULFONYLAMINO)-THIOPHENE-2-CARBOXYLIC ACID] | < 5 µM |
| CC(C)N(C(=O)c1ccc(Cl)cc1Br)c1cc(-c2ccccc2)sc1C(=O)O [Compound 306, 3-[(2-BROMO-4-CHLORO-BENZOYL)- ISOPROPYL-AMINO]-5-PHENYL- THIOPHENE-2-CARBOXYLIC ACID] | < 5 µM |
| Cc1ccc(C(=O)N(C)c2cc(-c3ccccc3)sc2C(=O)O)cc1[N+](=O)[O-] [Compound 257, 3-[METHYL-(4-METHYL-3-NITRO-BENZOYL)-AMINO]-5-PHENYL-THIOPHENE-2-CARBOXYLIC ACID] | 5 to 20 µM |
| O=C(O)c1sc(-c2ccccc2)cc1NS(=O)(=O)c1ccc(F)cc1C(F)(F)F [Compound 141, 3-(4-FLUORO-2-TRIFLUOROMETHYL-BENZENESULFONYLAMINO)-5-PHENYL-THIOPHENE-2-CARBOXYLIC ACID] | 5 to 20 µM |
| CCCN(C(=O)c1ccc(C)cc1)c1cc(-c2ccc(CCC(=O)O)cc2)sc1C(=O)O [Compound 318, 5-[4-(2-CARBOXY-ETHYL)-PHENYL]-3-[(4- METHYL-BENZOYL)-PROPYL-AMINO]- THIOPHENE-2-CARBOXYLIC ACID] | 5 to 20 µM |
| CN(C(=O)c1ccc(F)cc1F)c1cc(-c2ccccc2)sc1C(=O)O [Compound 78, 3-[(2,4-DIFLUORO-BENZOYL)-METHYL-AMINO]-5-PHENYL-THIOPHENE-2-CARBOXYLIC ACID] | 5 to 20 µM |
| CCc1ccc(-c2cc(NS(=O)(=O)c3ccccc3C)c(C(=O)O)s2)cc1 [Compound 232, 5-(4-ETHYL-PHENYL)-3-(TOLUENE-2-SULFONYLAMINO)-THIOPHENE-2-CARBOXYLIC ACID] | < 5 µM |
| Cc1cc(C)c(S(=O)(=O)Nc2cc(-c3ccccc3)sc2C(=O)O)c(C)c1 [Compound 298, 5-PHENYL-3-(2,4,6-TRIMETHYL- BENZENESULFONYLAMINO)- THIOPHENE-2-CARBOXYLIC ACID] | < 5 µM |
| CC(C)N(C(=O)c1ccc(Cl)cc1O)c1cc(-c2ccccc2)sc1C(=O)O [Compound 313, 3-[(4-CHLORO-2-HYDROXY-BENZOYL)- ISOPROPYL-AMINO]-5-PHENYL- THIOPHENE-2-CARBOXYLIC ACID] | < 5 µM |
| CCCCC(=O)N(C)c1cc(-c2ccccc2)sc1C(=O)O [Compound 389, 3-(METHYL-PENTANOYL-AMINO)-5- PHENYL-THIOPHENE-2-CARBOXYLIC ACID] | < 5 µM |
| Cc1ccccc1S(=O)(=O)Nc1cc(C#C[Si](C)(C)C)sc1C(=O)O [Compound 79] | < 5 µM |

| SMILES | IC50 |
| --- | --- |
| Cc1ccccc1S(=O)(=O)Nc1cc(-c2cccc(C#N)c2)sc1C(=O)O [Compound 117, 5-(3-CYANO-PHENYL)-3-(TOLUENE-2-SULFONYLAMINO)-THIOPHENE-2-CARBOXYLIC ACID] | < 5 µM |
| CC(=O)Nc1cccc(-c2cc(NS(=O)(=O)c3ccccc3C)c(C(=O)O)s2)c1 [Compound 90, 5-(3-ACETYLAMINO-PHENYL)-3-(TOLUENE-2-SULFONYLAMINO)-THIOPHENE-2-CARBOXYLIC ACID] | 5 to 20 µM |
| O=C(O)c1sc(-c2ccccc2)cc1NS(=O)(=O)c1ccc(Cl)s1 [Compound 37, 3-(5-CHLORO-THIOPHENE-2-SULFONYLAMINO)-5-PHENYL-THIOPHENE-2-CARBOXYLIC ACID] | < 5 µM |
| Cc1ccc(S(=O)(=O)Nc2cc(-c3ccccc3)sc2C(=O)O)c(C)c1 [Compound 136, 3-(2,4-DIMETHYL-BENZENESULFONYLAMINO)-5-PHENYL-THIOPHENE-2-CARBOXYLIC ACID] | < 5 µM |
| O=C(O)c1sc(-c2ccccc2)cc1N(C(=O)c1ccc(Cl)cc1Cl)c1ccccc1 [Compound 208, 3-[(2,4-DICHLORO-BENZOYL)-PHENYL-AMINO]-5-PHENYL-THIOPHENE-2-CARBOXYLIC ACID] | < 5 µM |
| O=C(O)c1sc(-c2ccccc2)cc1N(Cc1ccccc1)C(=O)c1ccc(Cl)cc1Cl [Compound 233, 3-[BENZYL-(2,4-DICHLORO-BENZOYL)-AMINO]-5-PHENYL-THIOPHENE-2-CARBOXYLIC ACID] | < 5 µM |
| C=CCN(C(=O)Cc1ccc(Cl)cc1)c1cc(-c2ccccc2)sc1C(=O)O [Compound 339, 3-(ALLYL-[2-(4-CHLORO-PHENYL)- ACETYL]-AMINO)-5-PHENYL-THIOPHENE- 2-CARBOXYLIC ACID] | 5 to 20 µM |
| CC(C)=CCN(C(=O)c1ccc(Cl)cc1Cl)c1cc(-c2ccccc2)sc1C(=O)O [Compound 244, 3-[(2,4-DICHLORO-BENZOYL)-(3-METHYL-BUT-2-ENYL)-AMINO]-5-PHENYL-THIOPHENE-2-CARBOXYLIC ACID] | < 5 µM |
| Cc1ccccc1S(=O)(=O)Nc1cc(-c2ccc(F)c(F)c2)sc1C(=O)O [Compound 70, 5-(3,4-DIFLUORO-PHENYL)-3-(TOLUENE-2-SULFONYLAMINO)-THIOPHENE-2-CARBOXYLIC ACID] | < 5 µM |
| Cc1ccccc1S(=O)(=O)Nc1cc(-c2ccncc2)sc1C(=O)O [Compound 86, 5-PYRIDIN-4-YL-3-(TOLUENE-2-SULFONYLAMINO)-THIOPHENE-2-CARBOXYLIC ACID] | < 5 µM |
| Cc1ccccc1S(=O)(=O)Nc1cc(-c2cccs2)sc1C(=O)O [Compound 56, 4-(TOLUENE-2-SULFONYLAMINO)-[2,2′]BITHIOPHENYL-5-CARBOXYLIC ACID] | < 5 µM |
| C=C(C)Cc1cc(N(C(=O)c2ccc(Cl)cc2Cl)C(C)C)c(C(=O)O)s1 [Compound 338, 3-[(2,4-DICHLORO-BENZOYL)- ISOPROPYL-AMINO]-5-(2-METHYL- ALLYL)-THIOPHENE- 2-CARBOXYLIC ACID] | < 5 µM |
| O=C(O)c1sc(-c2ccccc2)cc1NS(=O)(=O)c1cccc(F)c1 [Compound 49, 3-(3-FLUORO-BENZENESULFONYLAMINO)-5-PHENYL-THIOPHENE-2-CARBOXYLIC ACID] | < 5 µM |
| CN(C(=O)c1ccc2ccccc2c1)c1cc(-c2ccccc2)sc1C(=O)O [Compound 252, 3-[METHYL-(NAPHTHALENE-2-CARBONYL)-AMINO]-5-PHENYL-THIOPHENE-2-CARBOXYLIC ACID] | 5 to 20 µM |
| C=Cc1cc(C)ccc1C(=O)N(c1cc(-c2ccccc2)sc1C(=O)O)C(C)C [Compound 395, 3-[ISOPROPYL-(4-METHYL-2-VINYL- BENZOYL)-AMINO]-5-PHENYL- THIOPHENE-2-CARBOXYLIC ACID] | 5 to 20 µM |
| O=C(O)c1sc(-c2ccccc2)cc1NCc1ccc(Cl)cc1Cl [Compound 48, 3-(2,4-DICHLORO-BENZYLAMINO)-5-PHENYL-THIOPHENE-2-CARBOXYLIC ACID] | < 5 µM |
